Assay results published in the supplement of paper PMC5752671.
Where a name gives a salt, the structure may show the parent alone.

Experiments:
Experiment in all cases: area under dose-response curve (cell viability) (AUC (arbitrary, % viability x log concentration)); higher = less sensitive (more viable)
Details in all cases: 4 days
OCI-AML2 = system: OCI-AML2
Method in brief: (§1)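 The value given is the area under a fitted sigmoid dose-response curve. That sigmoid had four parameters and was fitted to duplicate-averaged data from fourteen leukemia cell lines grown on extracellular-matrix-coated 384-well plates. One day after plating, drugs were robotically dosed in duplicate at eight concentrations spanning 4–5 logs between 10^–12 and 10^–4 M, chosen per drug, and viability was read with CellTiter-Glo 4 days later.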

PL-21 = system: PL-21
Method in brief: as §1

EOL-1 = system: EOL-1
Method in brief: as §1

OCI-AML3 = system: OCI-AML3
Method in brief: as §1

MOLM/16 = system: MOLM/16
Method in brief: as §1

NB4 = system: NB4
Method in brief: as §1

THP-1 = system: THP-1
Method in brief: as §1

SKM1 = system: SKM1
Method in brief: as §1

SMILES	area under dose-response curve (OCI-AML2)	area under dose-response curve (PL-21)	area under dose-response curve (EOL-1)	area under dose-response curve (OCI-AML3)	area under dose-response curve (MOLM/16)	area under dose-response curve (NB4)	area under dose-response curve (THP-1)	area under dose-response curve (SKM1)
CC(=O)Nc1cccc(-n2c(=O)n(C3CC3)c(=O)c3c(Nc4ccc(I)cc4F)n(C)c(=O)c(C)c32)c1	196	350	250	218	450	407	497	253
Cc1ccccc1-n1c(Cn2cnc3c(N)ncnc32)nc2cccc(C)c2c1=O	633	614	598	664	644	667	679	637
CO[C@@]12[C@H](COC(N)=O)C3=C(C(=O)C(C)=C(N)C3=O)N1C[C@@H]1N[C@@H]12 [Mitomycin C]	203	486	274	341	341	309	384	387
N.N.[Cl][Pt][Cl] [Cisplatin]	646	639	666	678	650	665	761	657
CCc1c2c(nc3ccc(OC(=O)N4CCC(N5CCCCC5)CC4)cc13)-c1cc3c(c(=O)n1C2)COC(=O)[C@]3(O)CC [Irinotecan HCl]	514	564	513	569	516	563	627	574
N#CC[C@H](C1CCCC1)n1cc(-c2ncnc3[nH]ccc23)cn1	626	609	636	669	595	656	684	681
Cn1cc(C2=C(c3cn(C4CCN(Cc5ccccn5)CC4)c4ccccc34)C(=O)NC2=O)c2ccccc21 [Enzastaurin]	678	646	635	706	685	646	703	673
CC(C)C[C@@H](C=O)NC(=O)[C@H](CC(C)C)NC(=O)[C@H](CC(C)C)NC(=O)OCc1ccccc1 [MG132]	352	488	429	452	428	475	522	421
NC(=O)c1ccc2nc(-c3ccc(Oc4ccc(Cl)cc4)cc3)[nH]c2c1 [BML 277]	724	628	621	692	628	652	714	672
O=C(O)C1(C(=O)O)CCC1.[NH2-].[NH2-].[Pt+2] [Carboplatin]	608	644	617	685	672	665	737	677
c1cc(-c2sc(-c3ccncc3)c(-c3ccncc3)c2-c2ccncc2)ccn1 [GANT58]	603	604	599	645	611	624	735	650
CN(C)CCCn1cc(C2=C(c3c[nH]c4ccccc34)C(=O)NC2=O)c2ccccc21	582	591	479	663	543	648	701	601
CCc1cccc2c3c([nH]c12)C(CC)(CC(=O)O)OCC3 (configuration not stated) [Etodolac]	648	626	653	683	672	624	705	685
CSCC[C@H](NC(=O)c1ccc(NC[C@@H](N)CS)cc1-c1ccccc1)C(=O)O [FTI-276]	611	601	629	660	611	601	765	668
COc1cc(N2CCC(N3CCN(C)CC3)CC2)ccc1Nc1ncc(Cl)c(Nc2ccccc2S(=O)(=O)C(C)C)n1 [NVP-TAE-684]	541	511	501	603	551	591	644	576
COc1cccc2cc(-c3nc([C@H]4CC[C@H](C(=O)O)CC4)n4ncnc(N)c34)[nH]c12 [OSI-027]	506	491	350	509	429	576	566	548
C[C@@H]1C[C@H]2[C@@H]3CCC4=CC(=O)C=C[C@]4(C)[C@@]3(F)[C@@H](O)C[C@]2(C)[C@@]1(O)C(=O)CO [dexamethasone]	653	598	766	710	715	610	795	615
FC(F)(F)c1ccc(/C=C/c2nc(COc3ccc(CCCCn4ccnn4)cc3)co2)cc1 [Mubritinib]	547	515	404	529	402	496	514	588
CN(C)CC[C@H](CSc1ccccc1)Nc1ccc(S(=O)(=O)NC(=O)c2ccc(N3CCN(Cc4ccccc4-c4ccc(Cl)cc4)CC3)cc2)cc1[N+](=O)[O-] [ABT-737]	400	514	333	543	467	503	538	524
